Like-named read-outs stand apart in the source and are kept apart here.
How the values were obtained:
HIV-1 = type: cell-based
[1] = test system: Streptococcus pyogenes T18P; type: cell-based, S. pyogenes; settings: GML 10 and 20 ug/ml
rabbit RBCs [2] = test system: rabbit RBCs
rabbit RBCs [3] = assay: Streptolysin O-induced hemolysis on RBC-containing agar plates; type: cell-based; settings: GML 10 μg/ml in agar; Group A Streptococci stabbed into agar
Protocol: GML (10 μg/ml) was incorporated into culture plates containing solid agar and rabbit RBCs suspended in the agar. The effect of GML on. streptolysin O-induced hemolysis was tested by stabbing the Group A Streptococci into the agar so as to permit the anaerobic growth of the bacteria beneath the surface of the agar and thereby allow streptolysin O to function.

rabbit RBCs [4] = type: cell-based
human RBCs = type: cell-based

| Molecule | cells expressing p24 (HIV-1) | total number of cells in the samples (HIV-1) | number of bacteria in the epithelial cells [1] | RBC lysis by GML alone (rabbit RBCs [2]) | lysis of rabbit RBCs by the B. anthracis exotoxin (rabbit RBCs [2]; GML 5 μg/ml) | lysis of rabbit RBCs by the B. anthracis exotoxin (rabbit RBCs [2]; GML 10 μg/ml) | streptolysin O-induced hemolysis of RBCs (rabbit RBCs [3]) | lysis of RBCs by hemolysin (rabbit RBCs [4]) | lysis of human RBCs by the B. anthracis exotoxin (human RBCs; GML 1 μg/ml) | lysis of human RBCs by the B. anthracis exotoxin (human RBCs; GML 10 μg/ml) | Absorbance at 410 nm (rabbit RBCs [4]) | lysis of RBCs (rabbit RBCs [4]) |
| --- | --- | --- | --- | --- | --- | --- | --- | --- | --- | --- | --- | --- |
| CCCCCCCCCCCC(=O)OCC(O)CO (stereo not drawn) [GML, glycerol monolaurate] | rare and no | significantly less | dramatic decreases | did not cause RBC lysis | partially inhibited | almost completely inhibited | completely prevented | completely prevented | partially inhibited | completely inhibited |  |  |
| α-hemolysin |  |  |  |  |  |  |  |  |  |  | 0.97 | complete cell lysis |

— US20070276049A1 (priority 2003, published 2007)
